The series relates to MDCKII cell clones. The series can be described thus: Transcellular leakage of [3H]inulin across MDCKII cell monolayers. Type of series: in vitro ADME, canine. Particulars: 1 μM [3H]inulin in basolateral compartment, apical radioactivity after 30 min; all MDCKII cell clones. The protocol:
The transcellular leakage was determined by addition of 1 μM [^3H]inulin to the basolateral compartment and measurement of the radioactivity appearing in the apical compartment after an incubation period of 30 min. The transcellular leakage was 1-2% of the radioactivity added for all MDCKII cell clones examined in this study.

For inulin [[^3H]inulin], the transcellular leakage is given as 1-2 % of the radioactivity added.

For the origin of these results see patent US20080038728A1, “Quadruple Transformed Cell Line Useful for the Identification of Transport Inhibitors” (priority 2004, published 2008).
